Consider 5 substances from patent US20100167265A1, “VACCINE AGAINST INFECTIOUS AGENTS HAVING AN INT[…], COMPOSITION FOR THE TREATMENT AND PREVENTION OF HIV INFECTIONS, ANTIBODIES AND METHOD OF DIAGNOSIS” (INSTITUT NATIONAL de la SANTE ET DE LA RECHERCHE MEDICALE …, priority 1995, published 2010).

The first assay relates to B1G6 monoclonal antibody. Description: Effect of selected peptides on the neutralization of HIV-1 NDK by B1G6 monoclonal antibody on PBLs. The class given is cell-based. To be noted: peptide 100 or 50 μg/ml; B1G6 5 μg/ml. On the procedure: The peptides at a concentration of 100 μg/ml or 50 μg/ml (40 μl or 20 μl of the stock solution and 5 mg/ml) are preincubated with 5 μg/ml of B1G6 (10 μl of a stock solution at 1 mg/ml) in a total volume of 110 μl for 2 hours, in tubes on a water bath at 37° C., with gentle stirring. Next, HIV-1 NDK is added (100 μl of a 2×10^−4 dilution of a stock solution and the tubes are incubated for 1 hour at 37° C. on a water bath. The tubes are then separated into two and each 100 μl is added to 10^6 PBLs on a 24-well plate. The cells are cultured for 3 days at 37° C. under an atmosphere with 5% CO2. On day 3, the cells are washed, placed in culture and propagated for at least 20-25 days in a 25 cm^3 round-bottomed flask. The production of virus is monitored every 3 or 4 days by the assay of reverse transcriptase (RT).
Regarding FHPSDIE [F7E], the “canceling of the neutralizing effect of B1G6 on the production of HIV-1 NDK by the PBLs” value is reported as “can cancel the neutralizing effect”.
Still for that read-out and setting: for IQRTPNIVKW [compound 190] the value was “lost the canceling effect”.
The same measure, in the same setting: the result for IQRTPQIVKW [compound 189] reads “lost the canceling effect”.
Same read-out and setting: the result for RTPKIQV [R7V] reads “can cancel the neutralizing effect”.
TLSRTPKIQV [compound 185]: the “canceling of the neutralizing effect of B1G6 on the production of HIV-1 NDK by the PBLs” value is on record as “lost the canceling effect”.

The target in a further assay is T1, R7V (Homo sapiens, UniProt P61769).
T1 construct: The peptide R7V (RTPKIQV) was extended by 2 amino acids in order to allow the coupling
Put plainly: Immune response of rabbits immunized with peptide-KLH, serum ELISA on peptide.
Details: not given
The class given is in vivo, rabbit. On the procedure: The peptide antigen 7AA is coupled to KLH (Keyhole Limpet Hemocyanin) and injected into rabbits in the presence of complete Freund's adjuvant.
The animals are immunized in the presence of complete Freund's adjuvant at D0, D14, D28, D42 and trial bleedings are carried out before immunization on days 35, 49, 56 and 70.
The peptides used are: RV7-KLH, S7K-KLH and F7E-KLH
The peptide R7V (RTPKIQV) was extended by 2 amino acids in order to allow the coupling. The structure used as immunogen is […].
The antibodies of the rabbits immunized 618 were measured by ELISA, where the peptide coupled to various carrier proteins was used at the bottom of the well (either coupled to KLH, to BSA (Bovine Serum Albumin) or MAP (Multiple Antigenic Peptide)).
The diagrams represent the results obtained at 2 dilutions d100 and d1000, that is to say a 1/100 and 1/1000 dilution of the sera, or at different times. […]
→(Ag)final=1 μg/ml • distribute 100 μl/well, that is to 100 ng/well • incubate 2 h at 37° C. or overnight at 4° C. […] (in a humid atmosphere). • 8) Washes (identical to point 2) • 9) Visualization with OPD • dissolve 10 mg OPD in 25 ml of phosphocitrate buffer (0.1 M, pH 5.5) • add at the last moment 10 μl H2O2 • distribute 100 μl/well and incubate 30 min in the dark at room temperature (may be read at 405 nm) • stop the reaction with 50 μl H2SO4 12.5 k. • 10) Reading at 492 nm.
(In general: An ELISA detects its analyte on a solid surface through an enzyme-linked reagent.)
As for RTPKIQV [R7V], the immune response generated result was “good immune response”.
